Laboratory results from ChEMBL document CHEMBL2177026, “Acyl guanidine inhibitors of β-secretase (BACE-1): optimization of a micromolar hit to a nanomolar lead via iterative solid- and solution-phase library synthesis” (J Med Chem, 2012).

Tests used:
Assay type in all cases: cell-based
[1] = molecular target: T1, Beta-secretase 1 (Homo sapiens, UniProt P56817); test: Displacement of [3H]BMS-599240 from BACE1 expressed in HEK293 cells
[2] = molecular target: T1, Beta-secretase 1; test: Inhibition of BACE1 in human HEK293 cells expressing APP 695 Swedish mutant assessed as inhibition of amyloid beta (1 to 40) production after overnight incubation by ELISA
[3] = molecular target: T1, Beta-secretase 1; test: Ratio of IC50 for BACE1 in HEK293 cells expressing APP 695 Swedish mutant to Ki for BACE1
[4] = molecular target: T1, Beta-secretase 1; test: Ratio of IC50 for BACE1 in human KBV1 cells expressing APP 751 Swedish mutant in absence of tariquidar to IC50 for BACE1 in human KBV1 cells expressing APP 751 Swedish mutant in presence of tariquidar

T1 sequence (P56817 whole entry): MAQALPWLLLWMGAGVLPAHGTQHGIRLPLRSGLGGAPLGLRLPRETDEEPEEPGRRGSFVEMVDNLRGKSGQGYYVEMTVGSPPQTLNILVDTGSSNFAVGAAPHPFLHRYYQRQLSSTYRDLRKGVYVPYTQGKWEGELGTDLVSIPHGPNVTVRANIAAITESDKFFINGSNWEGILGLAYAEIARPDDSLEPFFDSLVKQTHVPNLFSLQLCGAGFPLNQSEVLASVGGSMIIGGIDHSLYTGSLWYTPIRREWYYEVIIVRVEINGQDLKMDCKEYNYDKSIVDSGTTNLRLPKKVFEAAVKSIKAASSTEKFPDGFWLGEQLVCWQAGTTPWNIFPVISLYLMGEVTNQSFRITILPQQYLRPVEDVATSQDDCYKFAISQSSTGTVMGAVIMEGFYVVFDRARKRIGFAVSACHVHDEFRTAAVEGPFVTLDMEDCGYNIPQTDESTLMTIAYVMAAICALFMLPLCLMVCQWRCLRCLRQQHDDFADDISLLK

SMILES	Ki [1] [nM]	IC50 [2] [nM]	Ratio [3]	Ratio IC50 [4]
Cc1onc(-c2ccc(F)cc2)c1C(=O)NC(N)=NCc1ccccc1	> 10000			
COc1ccc(-c2noc(C)c2C(=O)NC(N)=NCc2cc(Cl)c(NC(=O)CSC)c(Cl)c2)cc1	50	2000		
COc1ccc(-c2noc(C)c2C(=O)NC(N)=NCc2cc(Cl)c(NC(=O)CS(C)(=O)=O)c(Cl)c2)cc1	30	1900		
COc1ccc(-c2nsc(C)c2C(=O)/N=C(\N)NCc2cc(C)c(NC(=O)CN(C)C)c(Cl)c2)cc1			1	
COc1ccc(-c2noc(C)c2C(=O)NC(N)=NCc2cc(Cl)cc(-c3ccsc3)c2)cc1	1200			
COc1ccc(-c2noc(C)c2C(=O)/N=C(\N)NCc2cccc3ccccc23)cc1	1700			
COc1ccc(-c2noc(C)c2C(=O)NC(N)=NCc2cc(Cl)c(N)c(Cl)c2)cc1	120			
Cc1onc(-c2ccccc2)c1C(=O)/N=C(\N)NCc1cc(Cl)cc(Cl)c1	3900			
COc1ccc(-c2nsc(C)c2C(=O)/N=C(\N)NCc2ccc3ccccc3c2)cc1	870			
COc1ccc(-c2noc(C)c2C(=O)/N=C(\N)NCc2cc(Cl)c(O)c(Cl)c2)cc1	480			
COc1ccc(-c2nsc(C)c2C(=O)NC(N)=NCc2cc(Cl)c(NC(=O)CNCc3ccccc3)c(Cl)c2)cc1	6	140		
C=Cc1cc(Cl)cc(CN/C(N)=N/C(=O)c2c(-c3ccc(OC)cc3)noc2C)c1	430			
COc1ccc(-c2noc(C)c2C(=O)NC(N)=NCc2cc(C)c(NC(=O)CCSC)c(Cl)c2)cc1	30	640		
Cc1onc(-c2ccccc2)c1C(=O)NC(N)=NCc1cccc2ccccc12	3900			
COc1ccc(-c2nsc(C)c2C(=O)/N=C(\N)NCc2cc(Cl)c(NS(C)(=O)=O)c(Cl)c2)cc1	280			
COc1ccc(-c2nsc(C)c2C(=O)/N=C(\N)NCc2cc(Cl)c(NC(=O)CN3CCC3)c(Cl)c2)cc1			2	23
COc1ccc(-c2nsc(C)c2C(=O)/N=C(\N)NCc2cc(Cl)cc(Cl)c2)cc1	290	> 5000		
COc1ccc(-c2noc(C)c2C(=O)/N=C(\N)NCc2cc(C)c(NC(=O)C3CC3)c(Cl)c2)cc1	20	330	16	
COc1ccc(-c2nsc(C)c2C(=O)/N=C(\N)NCc2cc(Cl)c(NC(=O)CNCc3ccccc3)c(Cl)c2)cc1			23	

SMILES	Ki [1] [nM]	IC50 [2] [nM]	Ratio [3]	Ratio IC50 [4]
COc1ccc(-c2nsc(C)c2C(=O)NC(N)=NCc2cc(C)c(NC(C)=O)c(Cl)c2)cc1	20	240		
COc1ccc(-c2noc(C)c2C(=O)/N=C(\N)NCc2cc(Cl)c(NC(=O)C3CC3)c(Cl)c2)cc1	50	1600	32	
Cc1onc(-c2ccccc2)c1C(=O)NC(N)=NCc1ccc(Cl)c(Cl)c1	8800			
COc1ccc(-c2nsc(C)c2C(=O)/N=C(\N)NCc2cc(C)c(NC(=O)CNCc3ccccc3)c(Cl)c2)cc1			7	
Cc1onc(-c2ccc(F)cc2)c1C(=O)/N=C(\N)NCc1ccc(Cl)c(Cl)c1	2400			
COc1ccc(-c2noc(C)c2C(=O)/N=C(\N)NCc2cc(Cl)cc(Br)c2)cc1	510			
COc1ccc(-c2noc(C)c2C(=O)/N=C(\N)NCc2cc(C)c(NC(=O)CCSC)c(Cl)c2)cc1			21	
COc1ccc(-c2nsc(C)c2C(=O)/N=C(\N)NCc2cc(Cl)c(NC(=O)CN(C)C)c(Cl)c2)cc1	20	70	4	
CCCOc1c(Cl)cc(CN=C(N)NC(=O)c2c(-c3ccc(OC)cc3)noc2C)cc1Cl	> 5000			
COc1ccc(-c2noc(C)c2C(=O)/N=C(\N)NCc2cc(C)c(NC(=O)CN(C)C)c(Cl)c2)cc1	50	90	2	
COc1ccc(-c2[nH]nc(C)c2C(=O)/N=C(\N)NCc2cc(Cl)cc(Cl)c2)cc1	210			
COc1ccc(-c2nsc(C)c2C(=O)NC(N)=NCc2cc(C)c(NC(=O)CN(C)C)c(Cl)c2)cc1	20	20		
COc1ccc(-c2c(C(=O)/N=C(\N)NCc3cc(Cl)cc(Cl)c3)c(C)nn2C)cc1	4000			
COc1ccc(-c2noc(C)c2C(=O)/N=C(\N)NCc2cc(C)cc(C)c2)cc1	280			
CCC/C=C/c1cc(Cl)cc(CN=C(N)NC(=O)c2c(-c3ccc(OC)cc3)noc2C)c1	850			
CCC(=O)Nc1c(C)cc(CN/C(N)=N/C(=O)c2c(-c3ccc(OC)cc3)noc2C)cc1Cl			19	
COc1ccc(-c2noc(C)c2C(=O)NC(N)=NCc2ccc(Cl)c(Cl)c2)cc1	910			
COc1ccc(-c2noc(C)c2C(=O)/N=C(\N)NCc2cc(Cl)cc(/C=C/CCO)c2)cc1	140			
COc1ccc(-c2nsc(C)c2C(=O)/N=C(\N)NCc2cccc3ccccc23)cc1	500			

SMILES	Ki [1] [nM]	IC50 [2] [nM]	Ratio [3]	Ratio IC50 [4]
COC/C=C/c1cc(Cl)cc(CN/C(N)=N/C(=O)c2c(-c3ccc(OC)cc3)noc2C)c1	150			
CCC(=O)Nc1c(C)cc(CN=C(N)NC(=O)c2c(-c3ccc(OC)cc3)noc2C)cc1Cl	40	780		
COc1ccc(-c2noc(C)c2C(=O)/N=C(\N)NCc2cc(Cl)c(NC(=O)CSC)c(Cl)c2)cc1			40	
Cc1onc(-c2ccccc2)c1C(=O)/N=C(\N)NCc1ccccc1	> 10000			
COc1ccc(-c2onc(C)c2C(=O)/N=C(\N)NCc2cc(Cl)cc(Cl)c2)cc1	860			
Cc1onc(-c2ccc(F)cc2)c1C(=O)NC(N)=NCc1cc(Cl)cc(Cl)c1	2200			
COc1ccc(-c2nsc(C)c2C(=O)/N=C(\N)NCc2cc(C)c(NC(=O)c3ccccc3)c(Cl)c2)cc1	30	430	13	
COc1ccc(-c2noc(C)c2C(=O)/N=C(\N)NCc2cc(Cl)c(NC(C)=O)c(Cl)c2)cc1	10	790		
COc1ccc(-c2nsc(C)c2C(=O)/N=C(\N)NCc2cc(C)c(NC(C)=O)c(Cl)c2)cc1			12	
CCNCC(=O)Nc1c(Cl)cc(CN/C(N)=N/C(=O)c2c(-c3ccc(OC)cc3)nsc2C)cc1Cl	10	20	2	
CCNCC(=O)Nc1c(C)cc(CN/C(N)=N/C(=O)c2c(-c3ccc(OC)cc3)nsc2C)cc1Cl	20	10	0.5	
COc1ccc(-c2noc(C)c2C(=O)/N=C(\N)NCc2cc(Cl)c(NC(=O)CN(C)C)c(Cl)c2)cc1	50	210	4	
COc1ccc(-c2nsc(C)c2C(=O)/N=C(\N)NCc2cc(Cl)c(N)c(Cl)c2)cc1				1.7
COc1ccc(-c2noc(C)c2C(=O)/N=C(\N)NCc2cc(C)c(NC(=O)c3ccco3)c(Cl)c2)cc1	60	1400	23	
COc1ccc(-c2nsc(C)c2C(=O)NC(N)=NCc2cc(C)c(NC(=O)CNCc3ccccc3)c(Cl)c2)cc1	10	70		
Cc1onc(-c2ccc(F)cc2)c1C(=O)/N=C(\N)NCc1cccc2ccccc12	1800			
COc1ccc(-c2noc(C)c2C(=O)/N=C(\N)NCc2cc(Cl)c(NC(=O)CS(C)(=O)=O)c(Cl)c2)cc1			63	
COc1ccc(-c2noc(C)c2C(=O)/N=C(\N)NCc2cc(Cl)cc(-c3cccnc3)c2)cc1	1800			
COc1ccc(-c2noc(C)c2C(=O)/N=C(\N)NCc2ccccc2)cc1	4000			
